In article PMC7460603 (International Journal of Molecular Sciences, 2020):
Read-outs that look alike come from different tables or passages of the source.

Tests used:
[1] = molecular target: T1, electric eel acetylcholinesterase (eeAChE) (Electrophorus electricus, UniProt O42275); test: biochemical; assay type: biochemical; parameters: purchased Sigma, St. Louis, MO, USA; conditions: for Ki: three substrate concentrations (0.125, 0.25, 0.5 mM)
Protocol: (§1) Cholinesterase activities were measured by the Ellman method adapted for microtiter plates, as described in Ristovski et al.. Stock solutions of the prepared ruthenium compounds (1 mg/mL) or neostigmine bromide (Sigma-Aldrich, St. Louis, MO, USA) as a positive control were prepared in 100% ethanol and progressively diluted in 100 mM potassium phosphate buffer (pH 7.4) to a final volume of 50 µL. Then, 1 mM acetylthiocholine chloride and 0.5 mM 5,5′-dithiobis-2-nitrobenzoic acid were dissolved in the same buffer and added to the wells of the microtiter plates to the final volume of 150 μL. Electric eel acetylcholinesterase (eeAChE) or horse serum BChE (hsBuChE) (both Sigma, St. Louis, MO, USA) were dissolved in the same buffer to 0.0075 U/mL. Fifty μL of each of the cholinesterases was added to start the reactions, which were followed spectrophotometrically at 405 nm and 25 °C for 5 min using a kinetic microplate reader (Dynex Technologies, Chantilly, VA, USA). Blank reactions without the inhibitors were run in the presence of the appropriate dilution of ethanol. Every measurement was repeated at least three times. For determination of the inhibitory constants, the kinetics were monitored using three different final substrate concentrations (0.125, 0.25, 0.5 mM).

[2] = molecular target: T2, horse serum butyrylcholinesterase (hsBuChE) (Equus caballus, UniProt P81908); test: biochemical; assay type: biochemical; parameters: purchased Sigma, St. Louis, MO, USA; host or cells: horse serum; conditions: for Ki: three substrate concentrations (0.125, 0.25, 0.5 mM)
Protocol: as §1

[3] = 1H NMR stability in aqueous media
Protocol: All assays were carried out immediately after the solution preparation.

[4] = ESI-MS stability in solution; conditions: positive ion mode, direct infusion; immediately before measurement and after three days
[5] = phosphate buffer solution, cultural media RPMI and FP-RPMI, plasma; cited from earlier work
[6] = cited from earlier work
human serum albumin = conditions: cited from earlier work
NHEK-1 cells = conditions: non-cancer cells; cited from earlier work
HUVEC cells = conditions: non-cancer cells; cited from earlier work
immunoglobulins G = conditions: human serum; cited from earlier work
[7] = molecular target: T2, horse serum butyrylcholinesterase (hsBuChE); conditions: read-out: hsBuChE IC50; previously reported; cited from earlier work
[8] = molecular target: T1, electric eel acetylcholinesterase (eeAChE); conditions: read-out: eeAChE IC50; previously reported; cited from earlier work
neuromuscular transition = conditions: at pharmaceutically relevant concentrations; cited from earlier work
[9] = tested on: glutathione-S-transferase; conditions: cited from earlier work
human AChE (hAChE) = conditions: read-out: hAChE IC50; previously reported; cited from earlier work
[10] = read-out: eeAChE IC50, concentration inducing 50% inhibition of enzyme activity, mean ± SEM of three independent measurements, / = no activity
[11] = read-out: hsBuChE IC50, concentration inducing 50% inhibition of enzyme activity, mean ± SEM of three independent measurements, / = no activity
[12] = concentration inducing 50% inhibition of enzyme activity, mean ± SEM of three independent measurements, / = no activity, read-out: eeAChE IC50
[13] = concentration inducing 50% inhibition of enzyme activity, mean ± SEM of three independent measurements, / = no activity, read-out: hsBuChE IC50

T2 sequence (P81908 whole entry): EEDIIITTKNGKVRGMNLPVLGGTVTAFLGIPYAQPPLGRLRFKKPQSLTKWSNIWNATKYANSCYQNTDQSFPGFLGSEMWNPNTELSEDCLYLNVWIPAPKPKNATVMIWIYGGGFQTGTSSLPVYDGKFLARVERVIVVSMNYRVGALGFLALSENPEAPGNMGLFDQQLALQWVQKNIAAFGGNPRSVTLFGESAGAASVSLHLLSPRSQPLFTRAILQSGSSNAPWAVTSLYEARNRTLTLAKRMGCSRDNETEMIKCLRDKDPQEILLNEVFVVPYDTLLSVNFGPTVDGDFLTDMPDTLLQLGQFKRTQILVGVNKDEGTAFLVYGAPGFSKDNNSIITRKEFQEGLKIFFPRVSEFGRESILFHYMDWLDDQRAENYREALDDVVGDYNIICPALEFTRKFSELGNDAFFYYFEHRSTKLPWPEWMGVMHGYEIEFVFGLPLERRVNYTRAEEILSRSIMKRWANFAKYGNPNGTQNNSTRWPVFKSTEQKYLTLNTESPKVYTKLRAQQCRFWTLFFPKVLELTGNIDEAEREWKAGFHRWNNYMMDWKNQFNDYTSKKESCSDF
T1 sequence (O42275 24-633): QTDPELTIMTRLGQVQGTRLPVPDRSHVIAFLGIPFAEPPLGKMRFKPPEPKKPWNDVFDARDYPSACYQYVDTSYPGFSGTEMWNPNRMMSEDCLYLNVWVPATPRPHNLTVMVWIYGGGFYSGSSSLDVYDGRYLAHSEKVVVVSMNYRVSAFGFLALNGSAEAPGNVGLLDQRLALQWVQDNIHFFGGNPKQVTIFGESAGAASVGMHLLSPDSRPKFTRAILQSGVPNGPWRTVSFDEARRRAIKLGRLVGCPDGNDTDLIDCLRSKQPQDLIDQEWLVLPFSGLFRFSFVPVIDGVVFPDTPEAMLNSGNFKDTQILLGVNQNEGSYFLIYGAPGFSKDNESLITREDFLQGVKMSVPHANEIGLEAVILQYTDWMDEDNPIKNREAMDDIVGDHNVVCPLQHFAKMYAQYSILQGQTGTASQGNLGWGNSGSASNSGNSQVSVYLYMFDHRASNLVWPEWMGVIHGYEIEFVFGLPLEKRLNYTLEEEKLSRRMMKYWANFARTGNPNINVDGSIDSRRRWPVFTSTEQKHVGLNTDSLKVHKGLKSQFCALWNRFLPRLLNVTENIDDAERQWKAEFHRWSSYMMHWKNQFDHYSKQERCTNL

Compound | IC50 [1, 12] | Ki [1] | IC50 [2, 13] | Ki [2] | other results
CN(C)C(=O)Oc1cccc([N+](C)(C)C)c1 [Neostigmine bromide, reference compound] |  |  |  |  | IC50 [1]: 4.3 ± 0.8 µM; IC50 [2]: 37.3 ± 4.2 µM
On1ccccc1=S [a, 1-hydroxypyridine-2(1H)-thione] |  |  |  |  | IC50 [1, 10]: > 100 µM; IC50 [2, 11]: > 100 µM
[(η^6-p-Cymene)Ru(1-hydroxyquinoline-2-(1H)-thionato)Cl] [Compound 1g] | 4.9 ± 0.1 µM | 5.6 µM | 0.2 ± 0.05 µM | 0.2 µM | 
Cc1cccn(O)c1=S [b] |  |  |  |  | IC50 [1, 10]: > 100 µM; IC50 [2, 11]: > 100 µM
Cc1ccc(C(C)C)cc1.Cc1cccc(=S)n1[O-].[Cl-].[Ru+2] [Compound 1e] | 5.1 ± 0.4 µM | 4.9 µM | 0.7 ± 0.1 µM | 3.4 µM | stability under enzymatic assay conditions (1H NMR) ([3]; 6.25% EtOH-d6/D2O, 80.2 mM K2HPO4 and 19.8 mM KH2PO4, immediately and after one hour): remain stable; stability in D2O containing 140 mM NaCl (1H NMR) ([3]; after one day): negligible changes; stability in D2O (1H NMR) ([3]; immediately and after three days): remain the main present species
[(η^6-p-Cymene)Ru(2-hydroxyisoquinoline-3-(2H)-thionato)Cl] [Compound 1h] | 14.3 ± 2 µM | 20.1 µM | 0.7 ± 0.1 µM | 0.2 µM | 
Cc1ccn(O)c(=S)c1 [c] |  |  |  |  | IC50 ([1]; read-out: eeAChE IC50): > 100 µM; IC50 ([2]; read-out: hsBuChE IC50): > 100 µM
On1cc2ccccc2cc1=S [h, 2-Hydroxyisoquinoline-3-(2H)-thione] | > 100 µM |  | 53 µM |  | activity against eeAChE (in words) [1]: poorly active; activity against hsBuChE (in words) [2]: poorly active
Cc1cccc(=S)n1O [e] |  |  |  |  | IC50 [1, 10]: > 100 µM; IC50 [2]: > 100 µM
Cc1ccc(=S)n(O)c1 [d] |  |  |  |  | IC50 [1, 10]: > 100 µM; IC50 [2, 11]: > 100 µM
On1ccc2ccccc2c1=S [f, 2-Hydroxyisoquinoline-1-(2H)-thione] |  |  |  |  | IC50 [1, 10]: > 100 µM; IC50 [2, 11]: > 100 µM
Cc1ccc(C(C)C)cc1.Cc1cccn([O-])c1=S.[Cl-].[Ru+2] [Compound 1b] | 10.5 ± 0.7 µM | 9.7 µM | 1.2 ± 0.02 µM | 0.4 µM | stability in aqueous solution (ESI-MS, [M − Cl]+ ion) [4]: same spectrum; stability in aqueous media (UV-Vis) [5]: stable
Cc1ccc(=S)n([O-])c1.Cc1ccc(C(C)C)cc1.[Cl-].[Ru+2] [Compound 1d] | 6.6 ± 0.5 µM | 9.7 µM | 1.9 ± 0.4 µM | 0.4 µM | 
On1c(=S)ccc2ccccc21 [g, 1-Hydroxyquinoline-2-(1H)-thione] | > 100 µM |  | > 100 µM |  | 
Cc1ccc(C(C)C)cc1.Cc1ccn([O-])c(=S)c1.[Cl-].[Ru+2] [Compound 1c] | 9.5 ± 1.1 µM | 8.5 µM | 2.7 ± 0.8 µM | 0.9 µM | 
Cc1ccc(C(C)C)cc1.[Cl][Ru+].[O-]n1ccc2ccccc2c1=S [Compound 1f, [(η^6-p-Cymene)Ru(2-hydroxyisoquinoline-1-(2H)-thionato)Cl]] | 8.1 ± 0.5 µM | 12.3 µM | 1.3 ± 0.1 µM | 0.4 µM | 
Cc1ccc(C(C)C)cc1.[Cl][Ru+].[O-]n1ccccc1=S [Compound 1a] | 7.8 ± 0.8 µM | 15.1 µM | 2.3 ± 0.1 µM | 0.5 µM | stability in D2O solution containing NaCl [6]: confirmed the stability; stability in DMSO-d6/D2O (1H NMR) [6]: stable; fraction interacting with human serum albumin (human serum albumin): 70%; fraction remaining unbound (human serum albumin): 25%; cytotoxicity against NHEK-1 cells (NHEK-1 cells): no cytotoxicity; cytotoxicity against HUVEC cells (HUVEC cells): no cytotoxicity; fraction interacting with immunoglobulins G (immunoglobulins G): 5%; IC50 [7]: 7.52 µM; IC50 [8]: 5.01 µM; physiological response on the neuromuscular transition (neuromuscular transition): did not express any unwanted physiological response; inhibition of glutathione-S-transferase [9]: inhibited; IC50 (human AChE (hAChE)): 25.1 µM
